The record followed here is PubChem BioAssay AID720608 (Broad Institute, 2013).

In this assay the test system is SR lymphoma cells viability, CellTiter-Glo ATP, 8-48 h. In words: cytotoxicity in SR immunoblastic lymphoma cells – cell-based, CellTiter-Glo ATP luminescence, 8-48 h, dry powder, mechanism study for HRAS target identification, late-stage follow-up (AID 720608). For orientation: Cellular ATP, detected with luciferase, serves as a proxy for viable cell number.

Inconclusive results are not listed.

Regarding `COc1ccc(N(C(=O)CCl)C(C(=O)NCCc2ccccc2)c2cccs2)cc1Cl` (stereo not given), the AC50 (as a rule, the concentration at which the activity in the assay is half-maximal) (measured here: 8 h treatment) was 119 nM; the AC50 (measured here: 24 h treatment) was 46.8 nM; the AC50 (measured here: 48 h treatment) was determined as 42.3 nM.
Turning to `COC(=O)c1ccc([C@@H]2c3[nH]c4ccccc4c3C[C@@H](C(=O)OC)N2C(=O)CCl)cc1`, the AC50 worked out at 112 nM (measured here: 8 h treatment), 17.1 nM (measured here: 24 h treatment) and 18.6 nM (measured here: 48 h treatment).
The like results for `Cc1onc(C(=O)N2CCN(C(c3ccc(Cl)cc3)c3ccc(Cl)cc3)CC2)c1[N+](=O)[O-]` were, in that order, 364 nM, 80.4 nM and 97.9 nM.
Take `CC(C)(C)OC(=O)NCCOCCOCCOc1ccc(N(C(=O)CCl)C(C(=O)NCCc2ccccc2)c2cccs2)cc1Cl` (stereo not given): the AC50 by setting is: (measured here: 8 h treatment) 265 nM; (measured here: 24 h treatment) 61.1 nM; (measured here: 48 h treatment) 53.1 nM.
The like results for `C#CCCCC(=O)NCCOCCOCCOc1ccc(N(C(=O)CCl)C(C(=O)NCCc2ccccc2)c2cccs2)cc1Cl` (stereo not given) were, in that order, 2430 nM, 406 nM and 703 nM.
